The values below come from patent US8440199B2, “Methods for mobilizing mesenchymal stem cells in a patient” (Imperial Innovations Limited, priority 2007, dated 2013).

Assay [1] relates to haematopoietic progenitor cells (HPC). Put plainly: Example 1: HPC mobilisation, hind limb bone marrow perfusion and circulating blood, CFU-HPC assay. In kind it is in vivo, mice. The following applies: G-CSF or VEGF 2.5 μg on 4 consecutive days, then AMD3100 (0.1 mM infusion or 5 mg/kg i.p.); perfusate and blood, FIGS. 1-4. The procedure:
Assay was performed in duplicate Mobilised cells were maintained in semi-solid methylcellulose cultures for 11 days before quantification of the number of CFU-HPCs.

For assay [2], the system named is mesenchymal stem cells (MSC). Put plainly: Example 1: MSC mobilisation, hind limb bone marrow perfusion and circulating blood, CFU-MSC assay. Type of assay: in vivo, mice. The following applies: perfusate and blood, FIGS. 9-12. How it is done:
4×10^5 cells were added to 3 ml Mesencult media including supplements (05501 and 05502 Stemcell Technologies). Assay was performed in duplicate.

In a further assay the test system is SPCs. The experiment in a line: In situ perfusion of mouse hind limb, CFU-SPC in perfusate. Type of assay: in vivo, mice. As to conditions: for SPC mobilization from the bone marrow: FIG. 21d.
Assay [3] can be described thus: Total number of cells in the femurs. In kind it is in vivo. As to conditions: treated over 4 days; not significantly different compared to control mice.
Method: (§3) 24 hours after the last injection, mice were administered a CXCR4 antagonist (AMD3100, 5 mg/kg i.p), KC (30 μg/kg i.v.) or vehicle and blood was collected via cardiac puncture 60 minutes later for enumeration of circulating leukocyte, HPC, EPC, and stromal progenitor cell levels.
(§4) The perfusate was centrifuged and re-suspended in DMEM+20% FBS. In some experiments citrated blood was obtained via cardiac bleed and lysed for red blood cells. Bone marrow and perfusate cytospins, and blood smears were stained using DiffQuik for the enumeration of mononuclear cells, eosinophils, and neutrophils. Bone marrow, perfusate and lysed blood were then used for assays outlined below to enumerate HPCs (CFU-HPC), EPCs (CFU-EPC), SPCs (CFU-F).
The test system of assay [4] is HPCs. As to conditions: treated over 4 days, compared to controls, FIG. 22a. The procedure:
24 hours after the last injection, bone marrow was aspirated for the enumeration of a, CFU-HPC bone marrow frequency; b, CFU-EPC bone marrow frequency; and c, CFU-SPC bone marrow frequency.
(§1) Mobilized cells were incubated for 11 days before quantification.

For assay [5], the system named is EPCs. Put plainly: CFU-EPC bone marrow frequency. Type of assay: in vivo, mice. As to conditions: treated over 4 days, compared to controls, FIG. 22b.
For assay [6], the system named is HPCs. Put plainly: In vitro chemotaxis of bone marrow HPCs towards SDF-1α. In kind it is cell-based. As to conditions: bone marrow cells of mice treated 4 days; 30 nM SDF-1α, FIG. 23d, 23f. The procedure:
(§2) Bone marrow was aspirated on day 5 and harvested cells were used to determine a, SDF-1α levels in bone marrow supernatant as determined by ELISA; b, % of bone marrow Lin^− Sca-1^+ cells expressing CXCR4; and c, % of bone marrow CD34^+ VEGFR2^+ cells expressing CXCR4. Harvested cells were also utilized in the following chemotaxis assays: d, number of HPCs; and e, EPCs undergoing chemotaxis towards 30 nM SDF-1α. Cells taken from bone marrow of mice treated with G-CSF (closed bars) or vehicle (PBS, open bars). f, number of HPCs; and g, EPCs undergoing chemotaxis towards 30 nM SDF-1α.

Assay [7] relates to EPCs. Put plainly: In vitro chemotaxis of bone marrow EPCs towards SDF-1α. Type of assay: cell-based. As to conditions: bone marrow cells of mice treated 4 days; 30 nM SDF-1α, FIG. 23e, 23g. The procedure:
as §2

In assay [8] the test system is neutrophils. As to conditions: VEGF-treated mice, KC 30 nM, FIG. 24e. The procedure:
Bone marrow-derived neutrophils were tested for migration towards KC (30 nM) using 3 μm pore sized transwell chemotaxis plates as previously described (Wengner et al., 2008). To measure HPC and EPC migration towards SDF-1α, murine bone marrow cells (2×10^6 cells) were placed in the upper chamber of transwell inserts (5 μm pore size Corning). These in turn were placed in individual wells of a 24 well cell culture plate with 30 nM SDF-1α added. Chambers were incubated for 4 hours at 37° C. and migrated cells were then placed in methocult or EPC colony media as described above for the enumeration of CFU-HPC and CFU-EPC respectively.

Assay [9] has as its system neutrophils. The experiment in a line: Leukocyte counts of bone marrow. In kind it is in vivo, mice. The following applies: treated 4 days, compared to controls, FIG. 24f.
Method: 24 hours later these mice underwent perfusion of the right hind limb. CXCR4 antagonist (AMD3100 0.1 mM, closed bars) or vehicle (PBS, open bars) were then infused directly into the femoral artery for 10 minutes. The hind limb was then perfused for a further 50 minutes to allow collection of a, neutrophils via the femoral vein. […] The hind limb was again perfused for a further 50 minutes to allow b, collection of neutrophils.
The perfusate was centrifuged and re-suspended in DMEM+20% FBS. […] Bone marrow and perfusate cytospins, and blood smears were stained using DiffQuik for the enumeration of mononuclear cells, eosinophils, and neutrophils.
For another assay, the system named is HPC colonies. As to conditions: colonies grown from bone marrow of treated mice, FIGS. 25a, 25b. How it is done: a, number of cells per colony; and b, mean colony area; of CFU-HPC grown for […] in methocult.
as §1

The next assay concerns Lin^− Sca-1^+ HPCs. Put plainly: PI staining, cell cycle status of Lin- Sca-1+ HPCs. Type of assay: in vivo, mice. As to conditions: treated 4 days, FIG. 25c. How it is done: For flow cytometric analysis, cells were re-suspended in FACS buffer. To identify neutrophils in the bone marrow, surface expression of the granulocyte marker Ly-6G/Ly6C (Gr-1) was determined. Neutrophils were identified as Gr-1^high positive cells with a characteristic high side scatter profile. HPCs residing in the BM were selected as being negative for lineage (Lin^−) markers: CD3e, CD11b, CD45R, Ly-76, and Gr-1 and positive for Sca-1 (Lin^− Sca-1^+ cells) (Gerber et al., 2002; Uchida, et al., 1997). EPCs residing in the BM were selected as being positive for both CD34 and VEGFR2 (CD34^+ VEGFR2^+ cells) (Asahara et al., 1997; Yoon et al., 2005). […] Samples were then washed and then quantified on a FACSAria cell sorter (BD Biosciences, Oxford, United Kingdom) and analysed using FACSDiva software.
Lin^− Sca-1^+ cells and CD34^+ VEGFR2^+ cells were analysed to determine their cell cycling status using a propidium iodide (PI) stain. […] A dotplot of PI-Width against PI-Area was recorded. Aggregates of cells were detected as cells having a larger PI-W profile and were not included in the gate. […] To calculate the percentage of cells undergoing active cell cycling, a marker was set to exclude the G0/G1 peak and the percentage of cells in S/G2/M was calculated.

Assay [10] deals with HPCs. The experiment in a line: Circulating CFU-HPC in blood. The following applies: agent alone (AMD3100 5 mg/kg i.p., blood at 60 min; G-CSF or VEGF once daily for 4 days), FIG. 20b.
Method: a, Experimental protocol. […] 24 hours after the last injection, mice were administered a CXCR4 antagonist (AMD3100 5 mg/kg i.p, closed bars) or vehicle (PBS, open bars). 60 minutes later, blood was taken for analysis of circulating: b, CFU-HPC; c, CFU-EPC; and d, CFU-SPC. CFU-HPC, CFU-EPC, and CFU-SPC are shown as number of colonies per ml blood. n=5-8 mice per group. Data: means±s.e.m. *: P<0.05, **: P<0.01, ***: P<0.001 between selected groups.
as §3
In some experiments citrated blood was obtained via cardiac bleed and lysed for red blood cells. […] Bone marrow, perfusate and lysed blood were then used for assays outlined below to enumerate HPCs (CFU-HPC), EPCs (CFU-EPC), SPCs (CFU-F).
5×10^4 cells were added to Methocult medium (Stem cell technologies) supplemented with specific cytokines and growth factors to enable formation of CFU-HPC. Mobilized cells were incubated for 11 days before quantification.
(§5) The total number of colony forming units mobilized was calculated according to the number of colonies per plate×by the total number of leukocytes mobilized/number of cells seeded.
Assay [11] deals with endothelial progenitor cells (EPC). Put plainly: Example 1: EPC mobilisation, hind limb bone marrow perfusion and circulating blood, CFU-EPC assay. As to conditions: G-CSF or VEGF 2.5 μg on 4 consecutive days, then AMD3100; perfusate and blood, FIGS. 5-8.
Method: 24 hours after the last injection, mice were administered a CXCR4 antagonist (AMD3100, 5 mg/kg i.p), or vehicle and blood was collected via cardiac puncture 1 hour later for enumeration of circulating leukocyte, HPC, EPC and MSC levels.
On day 5, mice were anaesthetized with urethane (25% 0.2 ml i.p.) and the femoral artery and vein exposed. The hind limb was isolated by occlusion of the external iliac artery, superficial epigastric and muscular branch with 5/0 braided silk suture. Polyethylene cannulae (0.61 mm OD, Portex, London, UK) were immediately inserted into the femoral artery and vein and tied in place with 5/0 braided silk suture. Perfusion buffer (modified Krebs-Ringer bicarbonate buffer) at 37° C. was infused (0.15 ml/min) via the arterial cannula and removed from the venous cannula using a Minipuls peristaltic pump (Anachem, Luton, UK). The hind limb was perfused for an initial 10 minutes to remove remaining blood from the vasculature and then perfused for a further 60 min with vehicle alone or AMD3100, a CXCR4 antagonist (0.1 mM, Sigma UK) infused over the first 10 minutes using an infusion/withdrawal pump (Harvard Instruments, U.K.).
The perfusate was collected and centrifuged and the cell pellet re-suspended in Dulbecco's modified eagles medium (DMEM) with 20% fetal bovine serum (FBS). A total cell count was performed before the perfusate was lysed for red blood cells, re-suspended again in DMEM (20% FBS) and used for assays outlined below to enumerate haematopoietic progenitor cells (CFU-HPC), endothelial progenitor cells (CFU-EPC), and leukocyte populations.
In some experiments blood was taken to enumerate HPCs, EPCs and leukocytes. A total cell count was performed on citrated blood before being lysed for red blood cells and re-suspended in DMEM (20% FBS).
Assay was performed in duplicate. Dishes were incubated for 7 days before media was changed, and then incubated for a further 14 days before the enumeration of late outgrowth endothelial progenitor cells. Early outgrowth endothelial progenitor cells were enumerated on day 5.
In each of the above assays, the total number of colony forming units mobilised is calculated according to the number of colonies per plate×by the total number of leukocytes mobilized/number of cells seeded.
Mice were anaesthetised and the femoral artery and vein was cannulated such that the femoral bone marrow could be perfused (Martin et al, (2006) Br. J. Haem. 134: 326-329). […]
Mice were injected i.p. with the CXCR4 antagonist, AMD3100, (or vehicle control) and 1 h later the mice were killed. Blood was collected by cardiac puncture and stem cell numbers in the blood were determined. […]

Method for SPCs: a, overview of procedures set up for identifying the direct mobilization of progenitor cells from the femoral bone marrow. […] 24 hours after the last injection, mice underwent perfusion of the right hind limb. CXCR4 antagonist (AMD3100 0.1 mM, closed bars) or vehicle (PBS, open bars) were then infused directly into the femoral artery for 10 minutes. The hind limb was then perfused for a further 50 minutes to allow collection of b, CFU-HPC; c, CFU-EPC; or d, CFU-SPC; via the femoral vein. CFU-HPC, CFU-EPC, and CFU-SPC are shown as total number of colonies collected in the perfusate. n=5-8 mice per group. Data: means±s.e.m. *: P<0.05, **: P<0.01, ***: P<0.001 between selected groups.
as §3
On day 5 following pre-treatment of growth factors, mice were anaesthetized and the femoral artery and vein exposed. The hind limb was isolated by occlusion of the external iliac artery, superficial epigastric and muscular branch. Polyethylene cannulae (Portex, London, UK) were immediately inserted into the femoral artery and vein as previously described (Martin et al., 2003; 2006; Wengner et al., 2008). Perfusion buffer was infused via the arterial cannula and removed from the venous cannula using a Minipuls peristaltic pump (Anachem, Luton, UK). The hind limb was perfused for an initial 2 minutes to remove remaining blood from the vasculature and then perfused for a further 60 min with vehicle alone or the CXCR4 antagonist (AMD3100, 0.1 mM), infused over the first 10 minutes using an infusion/withdrawal pump (Harvard Instruments, U.K.).
as §4
5×10^5 cells were added to Mesencult media including supplements (Stemcell Technologies). Dishes were incubated for 7 days before media was changed, and then incubated for a further 14 days before the enumeration of SPC colonies (CFU-F).
as §5

Turning to VEGF, in assay [1], the HPC mobilization entry is “inhibits the capacity for AMD3100 to mobilize HPCs”. The MSC mobilization result was “mobilizes MSC into the blood” in [2] (G-CSF or VEGF 2.5 μg on 4 consecutive days, then AMD3100) and “does not mobilize MSCs” in [2] (agent alone). For the same substance, the “SPC mobilization from the bone marrow” value was “HPCs and SPCs were not mobilized” in the assay with SPCs (agent alone (CXCR4 antagonist 0.1 mM infused 10 min; G-CSF or VEGF pre-treatment 4 days)); “SPCs were mobilized” in the assay on SPCs (growth factor pre-treatment 4 days, then CXCR4 antagonist infused). Moreover, in the assay with SPCs (growth factor (50 nM) infused acutely, alone or in combination with CXCR4 antagonist, FIG. 31c), the “SPC mobilization, acute administration” value is “neither growth factor, when administered acutely or in combination with the CXCR4 antagonist led to mobilization of SPCs”. For the same substance, the “total number of cells in the femurs” value in assay [3] was 1.07±0.11×10^7 cells/femur. Also, in the assay on HPCs [4], the “frequency of HPCs in the bone marrow” value was “no difference was observed”. The “frequency/number of EPCs in the bone marrow” value in the assay with EPCs [5] is given as “no difference was observed”. For the same substance, the “HPC chemotaxis towards SDF-1α” value in the assay on HPCs [6] is reported as “abolished the ability of HPCs to migrate to SDF-1α”. For the same substance, the “EPC chemotaxis towards SDF-1α” value in the assay on EPCs [7] was “had no effect on EPC migration”. Also, in the assay with neutrophils [8], the “ability of bone marrow neutrophils to migrate towards KC in vitro” value is recorded as “did not affect”. The “numbers of neutrophils in the bone marrow” value in the assay on neutrophils [9] was “significant reduction in absolute numbers of mature neutrophils”. Besides, in the assay with HPC colonies, the “cellular content and size of HPC colonies” value was “significant increase in both their cellular content and size”. For the same substance, the “percentage of Lin- Sca-1+ HPCs in S/G2/M phase of the cell-cycle” value in the assay on Lin^− Sca-1^+ HPCs was “significant increase in the percentage of BM-HPCs”. In addition, in the assay on HPCs [10], the “circulating numbers of HPCs” value is on record as “did not increase circulating numbers of HPCs”. The EPC mobilization entry in [11] is “additive effect of AMD3100 and VEGF with respect to EPC mobilization”.
